The values that follow come from patent publication US9034874B2, “Carbamate/urea derivatives” (NOVARTIS AG, priority 2012, dated 2015).

What is called Ki is the dissociation constant of the complex between target and ligand, obtained from inhibition or displacement.

In assay [1] the target is human H3 receptors (Homo sapiens (Human), UniProt Q9Y5N1). Description: Affinity assessment: displacement of [3H]-N-α-Methylhistamine binding to membranes. The note with it: membranes containing human H3 receptors, radioligand [3H]-N-α-Methylhistamine. As for the experimental part:
The affinity of compounds of the invention to the H3 receptor can be assessed by measuring displacement of binding of the radioligand [3H]-N-α-Methylhistamine (PerkinElmer, #NET1027250UC) to membranes containing human H3 receptors (PerkinElmer, #ES-392-M400UA; GenBank: NM_007232.2; Hill S J et al, International Union of Pharmacology XIII. Classification of histamine receptors, Pharmacol Rev, 49(3), 253-278, 1997).
2. Compound serial dilution: Dilution was performed by BioTek Precision on compound dilution plate. Compound concentrations start at 5 or 10 μM, 10 point dose titrations with 3- or 5-fold serial dilutions.
3. Preparation of 2× membrane solution (25 ml): 1.25 ml human Histamine H3 receptor stock, 23.75 ml assay buffer.
4. Preparation of 2× solution of [3H]-N-α-methylhistamine (25 ml): 4.27 μl [3H]-N-α-methylhistamine stock, 25 ml assay buffer.
5. Assemble binding reaction: (a) transfer 1 μl of compound solution, 1 μl 100% DMSO and 1 μl 1 M (R)(−)-α-Methylhistamine (Sigma, #H128) to the reaction plate at room temperature, (b) transfer 50 μl of 2× protein solution to reaction plate, (c) transfer 49 μl of 2× radioligand solution to reaction plate (Corning® 96 well EIA/RIA plate; Sigma, #CLS3797).
6. Cover the reaction plate with a TopSeal™-A film (Perkin Elmer, #6005185) and incubate at 28° C. for 120 min. Equilibrate Zeba Spin Desalting Plates (Thermo Scientific, #89808) to room temperature for 120 min.
7. Remove the sealing material from the bottom of the filtration plate. Place the plate on a wash plate. Centrifuge at 1000 g for 2 min to remove the storage buffer at room temperature.
8. Transfer 70 μl binding reaction from reaction plate into filtration plates. Place the filtration plates on top of collection plate. Centrifuge the plate assembly at 1000 g for 2 min to collect the protein with bound radioligand. Add 200 μl of Microscint-40 (PerkinElmer, #6013641-1L) to each well of the collection plate. Cover the plates with TopSeal™-A film.
9. Read the plates on Wallac Microbeta Trilux 2450, Instrument settings: counting mode: CPM, counting time: 2 min.
10. Data analysis: GraphPad Prism: log (compound concentration) vs. response; variable slope. The Ki is calculated based on Chang and Prusoff: Ki=IC50/{1+([radioligand]/Kd)}
Background: In a radioligand displacement assay an active substance lowers the binding of a labelled ligand.

In assay [2] the test system is wakefulness in rats. Description: Effects on wakefulness (EEG/EMG recordings). It is filed as in vivo, rat. The conditions noted are these: oral, first 4 hours after administration. The protocol:
Animals: Male Sprague-Dawly rats (280-320 g) were housed individually under an ambient temperature of 22±0.5° C. with a relative humidity of 60±2% and an automatically controlled 12-h light/12-h dark cycle (light on at 07:00, illumination intensity 100 lux). The animals had free access to food and water.
EEG recording set up, Polygraphic Recordings and Vigilance State Analysis: Under pentobarbital anesthesia (50 mg/kg, i.p.), rats were chronically implanted with EEG and electromyogram (EMG) electrodes for polysomnographic recordings (Huang et al, J Neurosci, 23, 5975-5983, 2003). Two stainless steel screws (1 mm in diameter) EEG electrodes (the first screw: anteroposterior (AP), +2 mm; left-right (LR), −2 mm; and the second: AP, −2 mm; LR, −2 mm, AP from bregma, LR from lambda) and a reference electrode (opposite to EEG screw side, AP, +3 mm; LR, 3 mm) were surgically implanted and 3 stainless steel screws for anchorage to the skull. Two insulated stainless steel, Teflon-coated wires were bilaterally placed into both trapezius muscles and served as EMG electrodes for rats. All electrodes were attached to a micro connector and fixed to the skull with dental cement. […]
For the study of spontaneous sleep-wakefulness cycles, each animal was recorded for 24 h beginning at 19:00 P.M., the offset of the light period. The animals then entered the pharmacological phase of the study, in which sleep-wakefulness parameters were recorded for 72 h. […]
Cortical EEG and EMG signals were amplified, filtered (EEG, 0.5-30 Hz; EMG, 20-200 Hz), digitized at a sampling rate of 128 Hz, and recorded by using SLEEPSIGN (Kissei Comtec, Nagano, Japan). When complete, polygraphic recordings were automatically scored offline by 4-sec epochs as wake, REM, and NREM sleep by SleepSign according to standard criteria (Huang et al, Nat Neurosci, 8, 858-859, 2005). […]
Time-course changes in the amounts of sleep-wake, sleep/wake stage transition number, as well as number and duration of sleep/wake bouts in light/dark phases, were analyzed by the paired t test, with each animal serving as its own control. […]

Sequence of human H3 receptors (Q9Y5N1 whole entry): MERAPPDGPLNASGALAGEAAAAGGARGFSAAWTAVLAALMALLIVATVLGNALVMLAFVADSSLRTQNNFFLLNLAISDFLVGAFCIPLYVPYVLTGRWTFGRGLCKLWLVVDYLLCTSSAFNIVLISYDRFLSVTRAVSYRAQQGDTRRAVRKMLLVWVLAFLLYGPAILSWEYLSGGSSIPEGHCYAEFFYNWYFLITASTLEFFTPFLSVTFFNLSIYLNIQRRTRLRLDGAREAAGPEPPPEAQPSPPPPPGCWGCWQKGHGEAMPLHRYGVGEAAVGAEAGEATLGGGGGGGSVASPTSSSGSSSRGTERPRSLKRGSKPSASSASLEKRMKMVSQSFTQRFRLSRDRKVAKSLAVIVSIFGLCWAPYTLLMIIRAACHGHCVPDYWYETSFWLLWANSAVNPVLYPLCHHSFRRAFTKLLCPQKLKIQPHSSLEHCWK

In assay [1], `O=C(OC1CCN(c2ccc(=O)[nH]n2)CC1)N1CCN(C2CCC2)CC1` [Example 1.1, 1-(6-oxo-1,6-dihydropyridazin-3-yl)piperidin-4-yl 4-cyclobutylpiperazine-1-carboxylate] had a Ki of 26 nM. The “% increase in wakefulness at 10 mg” value in assay [2] is reported as 42.1%.
The matching figures for `CC(C)N1CCN(C(=O)OC2CCN(c3ccc(=O)n(C)n3)CC2)CC1` [Example 1.2, 1-(1-methyl-6-oxo-1,6-dihydropyridazin-3-yl)piperidin-4-yl 4-isopropylpiperazine-1-carboxylate]: 31 nM and 48.8%.
Regarding `CC(C)N1CCN(C(=O)OC2CCN(c3ccc(=O)[nH]n3)CC2)CC1` [Example 1.3, 1-(6-oxo-1,6-dihydropyridazin-3-yl)piperidin-4-yl 4-isopropylpiperazine-1-carboxylate], the Ki in assay [1] came out at 10 nM. Further, the “% increase in wakefulness at 10 mg” value in assay [2] is 19.1%.
